{
  "source": "patent US20090099252A1",
  "about": "“NOVEL L[…] AS THERAPEUTIC AGENTS” (priority 2007, published 2009)",
  "origin": "cited, not measured here",
  "tested_on": "multi-drug resistant cell line SKVLB-1",
  "conditions": "background statement",
  "data": [
    {"smiles": "C=C1C[C@H](C)C[C@@H]2CC=C[C@@H](C/C=C\\C(=O)O[C@H]([C@@H](O)/C=C/[C@@H]3CC(C)=CCO3)C[C@@H]3O[C@H]3[C@@H](O)C1)O2", "note": "[Laulimalide, laulimalide]", "values": [
      {"measurement": "IC50", "result": 1.2, "unit": "µM"}
    ]}
  ]
}
